Measurements: US10450258B2, “Substituted aromatic compounds for the treatment of pulmonary fibrosis, liver fibrosis, skin fibrosis and cardiac fibrosis” (PROMETIC PHARMA SMT LIMITED, priority 2013, dated 2019)
Counter-ions that a name gives are not always drawn.

Key:
[1] = tested on: CCl4-induced liver fibrosis mouse model; assay: CCl4-induced liver fibrosis mouse model; format: in vivo, mouse (male C57BL/6); conditions: CCl4 twice a week for 8 weeks; oral 100 and 200 mg/kg every day, day 1 to day 58; FIG. 22
Text: Hepatic fibrosis is an outcome of many chronic liver diseases, including hepatitis B virus, hepatitis C virus, alcoholic liver disease, non-alcoholic steatohepatitis and diverse chronic intoxication. It was thus desired to evaluate the effect of Compound I on murine CCl4-induced liver fibrosis. Intoxication with CCl4 results in hepatocyte damage, necrosis, inflammation, and fibrosis, which spreads to link the vascular structures that feed into and drain the hepatic sinusoid (the portal tract and central vein radical, respectively), and over 8-30 weeks results in the development of fibrosis to hepatocellular carcinoma. Therefore, evaluation of candidate antifibrotic drugs such as Compound I can be undertaken by treatment of the mice at appropriate time points and histologic, biochemical and cellular readouts may be used to monitor candidate drug efficacy in this model.
CCl4 (10% in corn oil, 2 ml/kg) was intraperitoneally injected twice a week for 16 weeks in male C57BL/6. Compound I (200 mg/kg) was orally administered every day from day 1 to day 113. Mice were euthanasized and histology and liver fibrotic markers were analyzed.
To determine if Compound I has an effect on liver fibrosis, hydroxyproline level was used to measure the collagen content in the tissue, which is indicative of liver fibrosis.
The reduction of collagen level in liver tissue was also observed in histological micrographs using the Masson's Trichrome staining.
The Masson's trichrome stain the cytoplasm, keratin, muscle fibers and intracellular fibers in red colour; nuclei in black colour and collagen (fibrous tissue) in blue color.
Another experiment has been performed with Compound 1 and Compound V where CCL4 (10% in olive oil, 2 ml/kg) was intraperitoneally injected twice a week for 8 weeks in male C57BL/6. Compound 1 and compound V were orally administered (100 and 200 mg/kg) every day from day 1 to day 58. Mice were euthanasized and collagen content (marker of fibrosis) in the liver was quantified by histomorphometry using Masson's trichrome staining.

[2] = tested on: collagen 1 mRNA in HK-2 cells (epithelial cells); assay: Inhibition of collagen mRNA in TGF-β-treated HK-2 epithelial cells; format: cell-based; conditions: Homo sapiens, HK-2, compound 0.5 mM
Protocol: (§1) CTGF, collagen 1 and α-SMA are fibrotic markers produced by activated fibroblasts and by epithelial cells that undergo to epithelial-mesenchymal transition (EMT).
(§2) Table 2: Percentage of inhibition of collagen in epithelial cells (HK2 cells) and fibroblasts (NHDF) and percentage of inhibition of α-SMA in fibroblasts (NRK-49F and NHDF) has been determined for several compounds according the invention. In all cases, the mRNA of collagen and α-SMA has been measured, and the inhibition was evaluated in presence of a respective concentration of the tested compound. The compounds have been tested at different concentrations [mM]. All compounds reduce the expression of collagen and α-SMA in HK-2, NHDF and NRK-49F cells.

[3] = tested on: collagen 1 mRNA in NHDF cells; assay: Inhibition of collagen mRNA in TGF-β-activated NHDF fibroblasts; format: cell-based; conditions: Homo sapiens, compound 0.5 mM
Protocol: as §1, §2

[4] = tested on: α-SMA mRNA in NRK-49F cells; assay: Inhibition of α-SMA mRNA in TGF-β-activated NRK-49F fibroblasts; format: cell-based, rat; conditions: Rattus norvegicus, NRK-49F, compound 0.5 mM
Protocol: as §1, §2

[5] = tested on: α-SMA mRNA in NHDF cells; assay: Inhibition of α-SMA mRNA in TGF-β-activated NHDF fibroblasts; format: cell-based; conditions: Homo sapiens, compound 0.5 mM
Protocol: as §1, §2

[6] = tested on: bleomycin-induced pulmonary fibrosis mouse model; assay: Bleomycin-induced pulmonary fibrosis mouse model: body weight and lung histology; format: in vivo, mouse (male C57BL6); conditions: oral, Compound I 200 mg/kg, pirfenidone 400 mg/kg
Protocol: Intratracheal instillation of the anticancer drug bleomycin into the mouse results in acute inflammation followed by a chronic fibrotic response. Therefore, evaluation of candidate antifibrotic drugs such as Compound I can be undertaken by treatment of the mice at appropriate time points and histologic, biochemical and cellular readouts may be used to monitor candidate drug efficacy in this model.
(§3) Male C57BL6 mice are administered intratracheal instillation of bleomycin sulphate (0.025 U) at day 0, randomized and administered Compound I (oral administration, 100 mg/kg and 200 mg/kg) on day 7 to day 20.
Lesions score was evaluated using HEP (Hemalun with Eosin/Ploxine) and Masson's trichrome staining. Lesions score was recorded as 1) Consolidation as shown by disrupted lung architecture (cellular and/or fibrosis) and 2) Alveolar wall as shown by thickness and shrinking outside of consolidated area.
(§4) It was therefore evaluated side-by-side with Compound I in the bleomycin-induced pulmonary fibrosis mouse model by the same protocol described in Example 4 above. Compound I (200 mg/kg) and pirfenidone (400 mg/kg) were orally administered either alone or in combination.
Lesions score was evaluated using HEP (Hemalun with Eosin/Ploxine) and Masson's trichrome staining and recorded as 1) Consolidation as shown by disrupted lung architecture (cellular and/or fibrosis), and 2) Alveolar wall as shown by thickness and shrinking outside of consolidated area.
The lesions score as determined by the percentage of leukocyte infiltration (inflammatory zone) multiplied by the percentage of collagen found in the leukocyte infiltrate was quantified by histomorphometry using Masson's trichrome staining.
Visual grading of pulmonary fibrosis was also determined according to Ashcroft's score. Briefly, the entire fields of each lung section were read by a blinded examiner, and each field was visually graded from 0 to 8. Criteria for grading lung fibrosis were as follows: Grade 0=normal lung; Grade 1=minimal fibrous thickening of alveolar or bronchiolar walls; Grade 3=moderate thickening of walls without obvious damage to lung architecture; Grade 5=increased fibrosis with definitive damage to lung structure and formation of fibrous bands or small fibrous masses; Grade 7=severe distortion of structure and large fibrous area; Grade 8=total fibrous obliteration of lung fields.

[7] = tested on: TGF-β, CTGF, IL-23p19, IL-6, collagen 1, fibronectin (FN-1), collagen 3 mRNA in lung tissue; assay: Real-time PCR of inflammatory and fibrotic marker mRNA in lung tissue, bleomycin-induced pulmonary fibrosis mouse model; format: in vivo, mouse (male C57BL6); conditions: oral, Compound I 200 mg/kg, pirfenidone 400 mg/kg, alone or combined
Protocol: as §3
Further analysis of the lung tissue was undertaken. CTGF, collagen 1 and IL-23p19 mRNA expression was quantified by real-time PCR.
as §4
In order to determine the effect of Compound I on pulmonary fibrosis, further analysis of the lung tissue was undertaken. TGF-β, CTGF, IL-23 and IL-6 mRNA expression was quantified by real-time PCR. […] Oral administration of pirfenidone had no effect on CTGF mRNA expression but decreased TGF-β, IL-23 and IL-6 mRNA expression. […]

[8] = Toxicity related to drug in the bleomycin-induced pulmonary fibrosis mouse model; format: in vivo; conditions: oral, Compound I 200 mg/kg, pirfenidone 400 mg/kg, alone or in combination, solubilized in PBS
Protocol: as §4
Compound I and pirfenidone were solubilized in PBS. In the combination therapy, pirfenidone was solubilized in a solution of Compound I. No toxicity was reported with Compound I treatment.

SMILES | collagen content in liver (histomorphometry, Masson's trichrome) [1] | inhibition at 500 µM [2] [%] | inhibition at 500 µM [3] [%] | inhibition at 500 µM [4] [%] | inhibition at 500 µM [5] [%] | histological lesion score of lungs (HEP and Masson's trichrome) ([6]; alone or combined, FIG. 8) | visual grading of pulmonary fibrosis (Ashcroft's score) ([6]; alone or combined, FIG. 11) | lesions and fibrosis in lungs (photomicrographs stained with HEP) ([6]; FIG. 10) | TGF-β mRNA expression in lungs ([7]; FIG. 12) | CTGF mRNA expression in lungs ([7]; FIG. 13) | IL-23 mRNA expression in lungs ([7]; FIG. 14) | IL-6 mRNA expression in lungs ([7]; FIG. 15) | collagen 3 mRNA expression in lungs ([7]; FIG. 18) | collagen 1 mRNA expression in lungs ([7]; reduction to the control level, FIG. 16) | fibronectin (FN-1) mRNA expression in lungs ([7]; reduction to the control level, FIG. 17) | Toxicity related to drug [8] | Toxicity related to drug ([8]; listed as pirfenidone)
CCCCCc1ccc(O)c(CC(=O)O)c1 [Compound V, Sodium Salt of (2-hydroxy-5-pentylphenyl)acetic acid] | significant reduction | 100 | 100 | 100 | 100 |  |  |  |  |  |  |  |  |  |  |  | 
Cc1ccc(=O)n(-c2ccccc2)c1 [Pirfenidone, pirfenidone, reference compound] |  |  |  |  |  | no reduction of fibrosis at the histological level | weak activity | no effect | decreased | no effect | decreased | decreased | no effect | significant reduction | significant reduction | Vertigo ++++ | severe vertigo
